The results in this text go back to patent US6624146B1, “Pharmaceutical compositions containing fibroblast growth factor-related peptides” (Agency of Industrial Science and Technology, priority 1998, dated 2003).

Assay [1] is described as follows: Weight-reducing effect: change in body weight the day after injection into the cerebral ventricles. In kind it is in vivo, Wistar rats. As to the method: This peptide was dissolved in physiological saline to prepare a 2.6 pmol/μl peptide-containing injection solution. Five μl of the injection solution (containing 13 pmol peptide) was administered into the cerebral ventricles of 10-week-old male Wistar rats, which were weighed on the next day to calculate amounts of change in weight prior to and subsequent to injection.
On the other hand, 5 μl physiological saline was administered to rats as a control in the same manner as described above, and 2.6 pmol/μl FGF-containing injection solution was administered to rats as a comparative example in the same manner as described above. Each rat was weighed on the next day to calculate amounts of change in weight prior to and subsequent to injection.

The nature of assay [2]: Food and water intake inhibitory effects 12 hours after injection into the cerebral ventricles. In kind it is in vivo, Wistar rats. As to the method:
In the same manner as in example 1, the peptide […]Try-Lys-Lys-Pro-Lys-Leu (SEQ ID NO:3) was synthesized. This peptide was dissolved in physiological saline to prepare a 2.6 pmol/μl peptide-containing injection solution. Five μl of the injection solution (containing 13 pmol peptide) was administered in the cerebral ventricles of 10-week old male Wistar rats, and the food and water intake level were measured 12 hours after administration to compare with those in the same period of the day prior to administration.
On the other hand, 5 μl physiological saline was administered as a control in the same manner as described above, and 2.6 pmol/μl FGF-containing injection solution was administered as a comparative example in the same manner as described above. Food and water intake levels were measured respectively 12 hours after administration, and were compared to those in the same period of the day prior to administration to calculate amounts of change in food and water intake.

Where [3] appears, read: 13 pmol into the cerebral ventricles, 12 hours, vs saline control.
[4] abbreviates: 10-week-old male Wistar rats, 13 pmol/5 μl into the cerebral ventricles, 12 hours after administration vs same period of the day prior.

In the case of “Ala-Ala-Val-Ala-Leu-Leu-Pro-Ala-Val-Leu-Leu-Ala-Leu-Leu-Ala-Val-Ala-Ala-Ala-Asn-Try-Lys-Lys-Pro-Lys-Leu (AAVALLPAVLLALLAVAAANYKKPKL; Derivative of partial peptide of fibroblast growth factors)”, the “Weights of the rats compared to physiological saline control (in words)” value in assay [1] (13 pmol into the cerebral ventricles, next day, vs saline control) is reported as “significantly reduced”. The “Amount of change in weight” value in assay [1] (10-week-old male Wistar rats, 13 pmol/5 μl into the cerebral ventricles, weighed on the next day, prior vs subsequent to injection) is -5.3 g. In addition, in assay [2] (setting [3]), the “Food intake level compared to physiological saline control (in words)” value was “significantly reduced” and the “Water intake level compared to physiological saline control (in words)” value is recorded as “significantly reduced”. For the same substance, in assay [2] (setting [4]), the “Amount of change in food intake” value is -4.8 g and the “Amount of change in water intake” value is -8.4 mL.
